According to patent publication US20090247624A1, “FORMULATIONS OF RADIOPROTECTIVE ALPHA BETA UNSATURATED ARYL SULFONES” (Onconova Therapeutics Inc., priority 2006, published 2009):

Assays:
[1] = system: HFL-1 cells; assay: Radioprotective effects on cultured normal cells (colony count); assay type: cell-based, human; details: 2.5 to 20 micromolar for 24 hrs before 10 Gy or 15 Gy; colonies on test plates / control plates
Experimental: HFL-1 cells, which are normal diploid lung fibroblasts, were plated into 24 well dishes at a cell density of 3000 cells per 10 mm^2 in DMEM completed with 10% fetal bovine serum and antibiotics. The test compounds listed in Table 11 were added to the cells 24 hours later in select concentrations from 2.5 to 20 micromolar, inclusive, using DMSO as a solvent. Control cells were treated with DMSO alone. The cells were exposed to the test compound or DMSO for 24 hrs. The cells were then irradiated with either 10 Gy (gray) or 15 Gy of ionizing radiation (IR) using a J. L. Shepherd Mark I, Model 30-1 Irradiator equipped with ^137cesium as a source.
After irradiation, the medium on the test and control cells was removed and replaced with fresh growth medium without the test compounds or DMSO. The irradiated cells were incubated for 96 hours and duplicate wells were trypsinized and replated onto 100 mm^2 tissue culture dishes. The replated cells were grown under normal conditions with one change of fresh medium for 3 weeks. The number of colonies from each 100 mm^2 culture dish, which represents the number of surviving cells, was determined by staining the dishes as described below.
To visualize and count the colonies derived from the clonal outgrowth of individual radioprotected cells, the medium was removed and the plates were washed one time with room temperature phosphate buffered saline. The cells were stained with a 1:10 diluted Modified Giemsa staining solution (Sigma) for 20 minutes. The stain was removed, and the plates were washed with tap water. The plates were air dried, the number of colonies from each plate were counted and the average from duplicate plates was determined.
A “+” indicates radioprotective activity of between 2- and 4.5-fold at the concentrations tested. Fold protection was determined by dividing the average number of colonies from the test plates by the average number of colonies on the control plates.

[2] = system: rodent species; details: after IP and IV administration to different rodent species; cited from earlier work
[3] = system: human; details: approximately 500 mg/kg iv continuously as 5 percent aqueous solution, one individual, four days; cited from earlier work
[4] = room temperature; cited from earlier work
[5] = system: C57 black mice; assay: Protection of mice from radiation toxicity by pre-treatment; assay type: in vivo
Experimental: C57 black mice age 10-12 weeks (Taconic) were divided into two treatment groups of 10 mice each. One group, designated the “200×2” group, received intraperitoneal injections of 200 micrograms (E)-4-carboxystyryl-4-chlorobenzylsulfone dissolved in DMSO (a 10 mg/Kg dose, based on 20 g mice) 18 and 6 hours before irradiation with 8 Gy gamma radiation. The other group, designated “500×2,” received intraperitoneal injections of 500 micrograms (E)-4-carboxystyryl-4-chlorobenzylsulfone dissolved in DMSO (a 25 mg/Kg dose, based on 20 g mice) 18 and 6 hours before irradiation with 8 Gy gamma radiation. A control group of 16 animals received 8 Gy gamma radiation alone.

[6] = “200×2” group: 10 mg/Kg i.p. 18 and 6 hours before 8 Gy gamma radiation
[7] = “500×2” group: 25 mg/Kg i.p. 18 and 6 hours before 8 Gy gamma radiation

With `O=S(=O)(/C=C\c1ccc(F)cc1)Cc1ccc(Cl)cc1` [Compound 7, (Z)-4-Fluorostyryl-4-chlorobenzylsulfone] the “Activity (radioprotection, fold protection)” value [1] was “+ (A “+” indicates radioprotective activity of between 2- and 4.5-fold at the concentrations tested)”.
In the case of “(E)-4-Fluorostyryl-4-cyanobenzylsulfone [Compound 6]”, the “Activity (radioprotection, fold protection)” value [1] is reported as “+ (A “+” indicates radioprotective activity of between 2- and 4.5-fold at the concentrations tested)”.
For `O=S(=O)(/C=C/c1ccc(F)cc1)Cc1ccc(Cl)cc1` [Compound 1, (E)-4-Fluorostyryl-4-chlorobenzylsulfone], the “Activity (radioprotection, fold protection)” value [1] was “+ (A “+” indicates radioprotective activity of between 2- and 4.5-fold at the concentrations tested)”.
With “(E)-4-Fluorostyryl-4-chlorophenylsulfone [Compound 10]” the “Activity (radioprotection, fold protection)” value [1] was “+ (A “+” indicates radioprotective activity of between 2- and 4.5-fold at the concentrations tested)”.
For “(E)-4-Fluorostyryl-4-trifluoromethylbenzylsulfone [Compound 5]”, the “Activity (radioprotection, fold protection)” value [1] was “+ (A “+” indicates radioprotective activity of between 2- and 4.5-fold at the concentrations tested)”.
With “(Z)-Styryl-(E)-2-methoxy-4-ethoxystyrylsulfone [Compound 11]” the “Activity (radioprotection, fold protection)” value [1] was “+ (A “+” indicates radioprotective activity of between 2- and 4.5-fold at the concentrations tested)”.
With “(E)-2,4,6-Trimethoxystyryl-4-methoxybenzylsulfone [Compound 2]” the “Activity (radioprotection, fold protection)” value [1] was “+ (A “+” indicates radioprotective activity of between 2- and 4.5-fold at the concentrations tested)”.
With `O=S(=O)(/C=C/c1ccoc1)Cc1ccc(Cl)cc1Cl` [Compound 8, (E)-3-Furanethenyl-2,4-dichlorobenzylsulfone] the “Activity (radioprotection, fold protection)” value [1] was “+ (A “+” indicates radioprotective activity of between 2- and 4.5-fold at the concentrations tested)”.
In the case of Hydroxypropyl-B-Cyclodextrin [HPCD], the toxicity [2] is given as “non-toxic”, the adverse clinical effects [3] is given as “no adverse clinical effects were reported” and the solubility in water [4] is given as “greater than 500 mg/ml”.
With `O=C(O)c1ccc(/C=C/S(=O)(=O)Cc2ccc(Cl)cc2)cc1` [Compound 13, (E)-4-Carboxystyryl-4-chlorobenzylsulfone] the “maximum mortality rate by day 40” value [5, 6] was “approximately 60%”, the “mice dead at day 20” value [5, 6] was “about 50%” and the “maximum mortality rate by day 40” value [5, 7] was “about 50%”. For the same compound, the “mice dead at day 20” value [5, 7] was “about 30%” and the “Activity (radioprotection, fold protection)” value [1] was “+ (A “+” indicates radioprotective activity of between 2- and 4.5-fold at the concentrations tested)”.
